Toxic doses and inconclusive results are not listed. Cut-off read from the data, not from the text of the source: active = T/C of 150% or more; inactive = T/C below 125%.
System: L1210 leukemia ip in BDF1 mice, survival T/C
Test: NCI In Vivo Anticancer Drug Screen. Data for tumor model L1210 Leukemia (intraperitoneal) in B6D2F1 (BDF1) mice
Settings: endpoint: mean survival time, higher = longer survival
Procedure, shortened: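 Transplanted-tumor mice were given test agent; controls received vehicle only. Survival readings from the two groups were divided (treated over control).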

[1] = dose: 100.0 mg/kg/injection, schedule: Q01DX001 (ip), vehicle: carboxymethylcellulose (CMC)
[2] = dose: 200.0 mg/kg/injection, schedule: Q01DX001 (ip), vehicle: carboxymethylcellulose (CMC)
[3] = dose: 400.0 mg/kg/injection, schedule: Q01DX001 (ip), vehicle: carboxymethylcellulose (CMC)
[4] = dose: 100.0 mg/kg/injection, schedule: Q01DX001 (ip), vehicle: saline
[5] = dose: 200.0 mg/kg/injection, schedule: Q01DX001 (ip), vehicle: saline
[6] = dose: 400.0 mg/kg/injection, schedule: Q01DX001 (ip), vehicle: saline
[7] = dose: 100.0 mg/kg/injection, schedule: Q04DX003 (ip), vehicle: saline with Tween-80
[8] = dose: 200.0 mg/kg/injection, schedule: Q04DX003 (ip), vehicle: saline with Tween-80

Measured: T/C

CN(C)CCCNC(=S)C(=S)NCCCN(C)C
inactive: dose: 50.0 mg/kg/injection, schedule: Q01DX009 (ip), vehicle: Klucel (hydroxypropylcellulose) (HPC) 105 % of control | dose: 100.0 mg/kg/injection, schedule: Q01DX009 (ip), vehicle: Klucel (hydroxypropylcellulose) (HPC) 105 % of control | dose: 100.0 mg/kg/injection, schedule: Q04DX003 (ip), vehicle: Klucel (hydroxypropylcellulose) (HPC) 94 % of control | dose: 200.0 mg/kg/injection, schedule: Q01DX009 (ip), vehicle: Klucel (hydroxypropylcellulose) (HPC) 96 % of control | dose: 200.0 mg/kg/injection, schedule: Q04DX003 (ip), vehicle: Klucel (hydroxypropylcellulose) (HPC) 94 % of control

N=c1nc(N)c(N)c(N)n1O
inactive: [1] 94 % of control | [2] 97 % of control | [3] 97 % of control

CCCCCCCCCCCCCCCC[As](=O)(O)CCCCCCCCCCCCCCCC
inactive: dose: 50.0 mg/kg/injection, schedule: Q01DX001 (ip), vehicle: saline 97 % of control | [4] 97 % of control | [5] 89 % of control | [6] 101 % of control

CC(C)Cc1ccc(C[N+]23CN4CN(CN(C4)C2)C3)cc1
inactive: dose: 75.0 mg/kg/injection, schedule: Q01DX001 (ip), vehicle: saline 100 % of control | dose: 150.0 mg/kg/injection, schedule: Q01DX001 (ip), vehicle: saline 96 % of control | dose: 300.0 mg/kg/injection, schedule: Q01DX001 (ip), vehicle: saline 102 % of control

O=c1[nH]c(=O)c2[nH]c(Br)c(Br)c2[nH]1
inactive: [4] 93 % of control | [5] 96 % of control | [6] 93 % of control

Cc1ccc(S(=O)(=O)OCC(C)([N+](=O)[O-])[N+](=O)[O-])cc1
inactive: dose: 100.0 mg/kg/injection, schedule: Q04DX002 (ip), vehicle: saline with Tween-80 94 % of control | dose: 200.0 mg/kg/injection, schedule: Q04DX002 (ip), vehicle: saline with Tween-80 97 % of control | dose: 400.0 mg/kg/injection, schedule: Q04DX002 (ip), vehicle: saline with Tween-80 101 % of control

CCCCCCCCCC(=S)N1CCN(c2ccccc2)CC1
inactive: [4] 95 % of control | [5] 93 % of control | [6] 90 % of control

CCCCC(C=NCC(CCCC)(CCN(C)C)c1cccc2ccccc12)(CCN(C)C)c1cccc2ccccc12 (stereo unspecified)
inactive: dose: 6.25 mg/kg/injection, schedule: Q04DX002 (ip), vehicle: Klucel (hydroxypropylcellulose) (HPC) 89 % of control | dose: 12.5 mg/kg/injection, schedule: Q04DX002 (ip), vehicle: Klucel (hydroxypropylcellulose) (HPC) 89 % of control | dose: 25.0 mg/kg/injection, schedule: Q04DX002 (ip), vehicle: Klucel (hydroxypropylcellulose) (HPC) 92 % of control

Cc1c[n+]([O-])cc(C)c1N=Nc1ccc(N(C)C)cc1
inactive: [7] 103 % of control | [8] 96 % of control

O=C(CCl)c1c(O)[n+](Cc2ccccc2)c2ccccn12
inactive: dose: 25.0 mg/kg/injection, schedule: Q04DX003 (ip), vehicle: saline 100 % of control | dose: 50.0 mg/kg/injection, schedule: Q04DX003 (ip), vehicle: saline 96 % of control | [4] 91 % of control | dose: 100.0 mg/kg/injection, schedule: Q04DX003 (ip), vehicle: saline 91 % of control | dose: 150.0 mg/kg/injection, schedule: Q04DX003 (ip), vehicle: saline 97 % of control | [5] 94 % of control | dose: 225.0 mg/kg/injection, schedule: Q04DX003 (ip), vehicle: saline 103 % of control | dose: 335.0 mg/kg/injection, schedule: Q04DX003 (ip), vehicle: saline 106 % of control

O=C(O)C1CCCCC1C(=O)Nc1ccccc1C(F)(F)F (stereo unspecified)
inactive: dose: 100.0 mg/kg/injection, schedule: Q01DX009 (ip), vehicle: saline with Tween-80 98 % of control | [7] 105 % of control | dose: 200.0 mg/kg/injection, schedule: Q01DX009 (ip), vehicle: saline with Tween-80 90 % of control | [8] 100 % of control | dose: 400.0 mg/kg/injection, schedule: Q01DX009 (ip), vehicle: saline with Tween-80 94 % of control | dose: 400.0 mg/kg/injection, schedule: Q04DX003 (ip), vehicle: saline with Tween-80 100 % of control

CCOc1ccc([N+](=O)[O-])cc1C1N(Cc2ccccc2OC)CCCN1Cc1ccccc1OC
inactive: [1] 98 % of control | [2] 98 % of control | [3] 104 % of control

— PubChem BioAssay AID248 (DTP/NCI, 2004)
